Marks after values point to notes of the source that are not given here. Where a SMILES comes first, the peptide text is derived from it. [ ]: non-standard residue; d: D form. Tyr(3-I) = N[C@@H](Cc1ccc(O)c(I)c1)C(=O)O; Nle = CCCC[C@H](N)C(=O)O
Tests used:
[1] = target: F354 multiple chimeric melanocortin receptor; test: Radioligand binding saturation, chimera F354; settings: COS-1, F354, F-set, parts A/B/C MC3/MC5/MC4, pK ± SD
[2] = target: F451 multiple chimeric melanocortin receptor; test: Radioligand binding saturation, chimera F451; settings: COS-1, F451, F-set, parts A/B/C MC4/MC5/MC1, pK ± SD
[3] = target: F514 multiple chimeric melanocortin receptor; test: Radioligand binding saturation, chimera F514; settings: COS-1, F514, F-set, parts A/B/C MC5/MC1/MC4, pK ± SD
[4] = target: S134 multiple chimeric melanocortin receptor; test: Radioligand binding saturation, chimera S134; settings: COS-1, S134, S-set, parts A/B/C MC1/MC3/MC4, pK ± SD
[5] = target: S531 multiple chimeric melanocortin receptor; test: Radioligand binding saturation, chimera S531; settings: COS-1, S531, S-set, parts A/B/C MC5/MC3/MC1, pK ± SD
[6] = target: F413 multiple chimeric melanocortin receptor; test: Radioligand binding saturation, chimera F413; settings: COS-1, F413, F-set, parts A/B/C MC4/MC1/MC3, pK ± SD
MC3 receptor = settings: saturation; MC3 wt.; ref [31]; cited from earlier work
Text: (§1) Table 1 Affinities of multiple chimeric melanocortin receptors.

MC1 receptor = settings: saturation; MC1 wt.; ref [31]; cited from earlier work
Text: as §1

MC5 receptor = settings: saturation; MC5 wt.; ref [31]; cited from earlier work
Text: as §1

MC4 receptor = settings: saturation; MC4 wt.; ref [31]; cited from earlier work
Text: as §1

CCCC[C@H](NC(=O)[C@H](CO)NC(=O)[C@H](Cc1ccc(O)c(I)c1)NC(=O)[C@H](CO)NC(C)=O)C(=O)NCC(=O)N[C@@H](Cc1c[nH]cn1)C(=O)N[C@H](Cc1ccccc1)C(=O)N[C@@H](CCCNC(=N)N)C(=O)N[C@@H](Cc1c[nH]c2ccccc12)C(=O)NCC(=O)N[C@@H](CCCCN)C(=O)N1CCC[C@H]1C(=O)N[C@H](C(N)=O)C(C)C [^125I-NDP-MSH, [^125I-Tyr^2, Nle^4, D-Phe^7]-α-MSH] (Ac-S[Tyr(3-I)]S[Nle]GH[dF]RWGKPV-NH2)
pK (Kd) [1]: 8.80 ± 0.16
pK (Kd) [2]: 9.06 ± 0.31
pK (Kd) [3]: 9.19 ± 0.21
pK (Kd) [4]: 9.30 ± 0.26
pK (Kd) [5]: 8.96 ± 0.35
pK (Kd) [6]: 8.62 ± 0.16
pK (Kd) (MC3 receptor): 9.40^a
pK (Kd) (MC1 receptor): 9.96^a
pK (Kd) (MC5 receptor): 8.54^a
pK (Kd) (MC4 receptor): 8.64^a
